Source: patent publication US20250025543A1, “DRUG FOR TREATING AND/OR PREVENTING CANCER AND USE THEREOF” (YUANBEN (ZHUHAI HENGQIN) BIOTECHNOLOGY CO., LTD., priority 2021, published 2025)
Like-named read-outs stand apart in the source and are kept apart here.

Legend:
[1] = system: MC38 colon cancer; details: for Tumor cure rate: groups of 8; for Tumor inhibition rate: vs NS control group
Method: (§1) The tumor graft inhibition rate and the tumor inhibition rate of the subcutaneous colon cancer in each group were calculated. The formula is as follows: [tumor inhibition rate=(mean tumor weight in control group −mean tumor weight in experimental group)/mean tumor weight in control group×100%]. [tumor cure rate=(number of mice without tumor/total number of mice)×100%].
Mice were weighed and randomly divided into groups of 8. MC38 colon cancer cells were diluted with an IMDM basal medium and inoculated in the right axilla of the C57BL/J mice according to 5×10^5 cells/mouse, with a total amount of 100 μL/mouse, for modeling. After the tumor diameter reached 5 mm, the mice were divided into 4 groups, namely a normal saline control group (NS group), an oxaliplatin injection group (oxaliplatin group), a recombinant MBP-MUC1-N fusion protein vaccine group (vaccine group), and an oxaliplatin in combination with recombinant MBP-MUC1-N fusion protein vaccine formulation group (combination group). On day 3, day 7, day 10, day 14, and day 17 of tumor bearing, the recombinant MBP-MUC1-N fusion protein vaccine formulation was intramuscularly injected at a dose of 100 pg/mouse (diluted with NS, with a total amount of 200 μL) for immunization, and oxaliplatin was intraperitoneally injected at a dose of 3 mg/kg (diluted with 12% DMSO).

[2] = system: MC38 colon cancer; test: Vaccine prepared by three-step purification in treatment of MC38 colon cancer alone, compared with anti-PD-1 antibody (Example 3); assay type: in vivo, C57 BL/6J mice
[3] = system: MC38 colon cancer
Method: Mice were weighed and randomly divided into groups of 6. MC38 colon cancer cells were diluted with an IMDM basal medium and inoculated in the right axilla of the C57BL/J mice according to 5×10^5 cells/mouse, with a total amount of 100 μL/mouse, for modeling. After the tumor diameter reached 5 mm, the mice were divided into 4 groups, namely a normal saline control group (NS group), an immune checkpoint inhibitor anti-PD-1 antibody injection group (PD-1 group), a recombinant MBP-MUC1-N fusion protein vaccine group (vaccine group), and a recombinant MBP-MUC1-N fusion protein vaccine formulation in combination with immune checkpoint inhibitor anti-PD1 antibody group (combination group). On day 3, day 7, day 10, day 14, and day 17 of tumor bearing, the recombinant MBP-MUC1-N fusion protein vaccine formulation was intramuscularly injected at a dose of 100 μg/mouse (diluted with NS, with a total amount of 200 μL) for immunization, and the immune checkpoint inhibitor anti-PD-1 antibody was intraperitoneally injected at a dose of 250 μg/mouse (diluted with NS, with a total amount of 500 tL/mouse).
as §1

Compound	Tumor volume ([1]; 5 days after injection)	Tumor volume ([1]; 7 days after injection)	Survival time of the mice suffering from the cancer ([1]; MC38 tumor-bearing mice, FIG. 3)	Tumor cure rate [1]	Tumor inhibition rate [1]	Tumor volume ([2]; 3 days after injection)	Tumor volume ([2]; 7 days after injection)	Tumor volume ([2]; 10 days after injection)	Tumor weight ([2]; MC38 tumor-bearing mice, vaccine 50 μg/mouse i.m., anti-PD-1 antibody 200 μg/mouse i.p., day 3, 7, 10, 14 of tumor bearing)	Tumor cure rate ([2]; groups of 10)	Tumor inhibition rate ([2]; vs PBS control group)	Tumor weight ([3]; MC38 tumor-bearing mice, vaccine 100 μg/mouse i.m., anti-PD-1 antibody 250 μg/mouse i.p., day 3, 7, 10, 14, 17 of tumor bearing)	Tumor inhibition rate ([3]; from mean tumor weight vs NS control group)	Tumor cure rate ([3]; number of mice without tumor/total number of mice, groups of 6)
O=C1[O][Pt]2([NH][C@@H]3CCCC[C@H]3[NH]2)[O]C1=O [Oxaliplatin group, oxaliplatin]	0.46 ± 0.12 cm^3	0.81 ± 0.20 cm^3	29 days	12.5%	50%	–	–	–	–	–	–	–	–	–
Vaccine group: recombinant fusion protein of maltose-binding protein MBP and human mucin MUC1-N in tandem (SEQ ID NO. 3), as vaccine	–	–	–	0%	27%	0.41+0.17 cm^3	1.11+0.83 cm^3	1.53+0.55 cm^3	1.53 ± 0.55 g	40%	40%	1.96 ± 0.80 g	26%	0%
